# According to PMC8899516, “Structure-Activity Relationship Studies of 4-((4-(2-fluorophenyl)piperazin-1-yl)methyl)-6-imino-N-(naphthalen-2-yl)-1,3,5-triazin-2-amine (FPMINT) Analogues as Inhibitors of Human Equilibrative Nucleoside Transporters” (Frontiers in Pharmacology, 2022):
# Key:
# Type in all cases: cell-based
# [1] = target: T1, ENT2 (Homo sapiens, UniProt Q14542); experiment: Kinetic study of [3H]uridine uptake in PK15NTD/ENT2 cells
# T1 construct: expressed in transfected cells
# T1 sequence (Q14542 1-456): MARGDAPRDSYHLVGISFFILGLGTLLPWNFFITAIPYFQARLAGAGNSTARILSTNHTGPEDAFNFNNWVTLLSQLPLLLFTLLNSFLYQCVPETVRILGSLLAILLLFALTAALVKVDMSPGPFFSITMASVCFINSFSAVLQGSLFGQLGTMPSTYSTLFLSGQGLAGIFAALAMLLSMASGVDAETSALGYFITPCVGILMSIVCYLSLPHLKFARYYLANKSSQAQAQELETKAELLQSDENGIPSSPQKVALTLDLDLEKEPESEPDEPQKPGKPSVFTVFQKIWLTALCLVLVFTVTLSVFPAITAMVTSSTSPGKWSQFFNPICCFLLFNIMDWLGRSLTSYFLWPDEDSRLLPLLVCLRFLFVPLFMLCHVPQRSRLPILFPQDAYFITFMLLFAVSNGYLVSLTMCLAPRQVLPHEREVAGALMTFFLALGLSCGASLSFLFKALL
# Description: (§1) Nucleoside transporter-deficient porcine kidney fibroblast cells (PK15NTD) stably transfected with cloned human ENT1 or ENT2 ([Ward et al., 2000]) were used as the in vitro models. The cells were cultured in Dulbecco’s Modified Eagle’s Medium (DMEM) supplemented with 10% (v/v) foetal bovine serum, 0.5 mg/ml geneticin, 100 units/ml penicillin, 100 μg/ml streptomycin and 0.25 μg/ml of amphotericin B at 37°C in 5% CO2/95% air.
# (§2) Confluent monolayers of PK15NTD/ENT1 and PK15NTD/ENT2 cells in 24-well plates were washed thrice with HEPES-buffered Ringer’s solution containing (mM): 135 NaCl, 10 glucose, 5 KCl, 5 HEPES, 3.33 NaH2PO4, 1.0 CaCl2, 1.0 MgCl2, 0.83 Na2HPO4; pH 7.4. The cells were incubated with different concentrations of FPMINT analogues (from 10 nM to 100 μM) containing [^3H]uridine (2 μCi/ml, 1 μM) for 1 min. Passive uridine uptake was determined by incubating the cells in HEPES-buffered Ringer’s solution containing [^3H]uridine in the presence of 0.5 mM NBMPR. The cells were rapidly washed five times with ice-cold phosphate-buffered saline (PBS). After air-drying, the cells were solubilised by overnight incubation in 500 μl of 5% Triton-X100. Next, 300 μl of the cell lysates were mixed with 2 ml of scintillation liquid. The radioactivity of each sample was quantified by a scintillation counter. The protein content in each well was determined spectrophotometrically using a commercial bicinchoninic acid assay (Pierce Biochemicals, Rockford, IL). Uptake values were expressed as picomoles of [^3H]uridine per milligram of cellular protein per minute.
# (§3) All data were analysed by GraphPad Prism software (San Diego, CA, United States). Data are expressed as mean ± standard error (SE) of three experiments performed in triplicate. The IC50 values were determined from the dose-response curves fitted with a logistic function. For the kinetic study of [^3H]uridine uptake, apparent K m and V max values were determined from the Michaelis-Menten equation, and K i was determined from the X-intercept of linear regression. Analysis of variance and Student’s t-test were performed for multiple and paired variables, respectively. p values of <0.05 were considered to be statistically significant.
# Compound 3c was selected for further investigation. The kinetic study of [^3H]uridine transport was performed by measuring the concentration-dependent uptake of [^3H]uridine. This study could provide clue about the mode of action of compound 3c. The uptake of [^3H]uridine by ENT1 and ENT2 was saturable and conformed to Michaelis-Menten kinetics. Compound 3c decreased the V max of ENT1 but had no effect on K m . […] The slopes of the linear 1/V versus 1/[S] plots increased with the concentration of compound 3c (Figure 4B).
# FIGURE 4 Competitive inhibition of ENT1 and ENT2 by compound 3c. Kinetic study of [^3H]uridine uptake (0.1 μM–1 mM) was measured in (A) PK15NTD/ENT1 and (D) PK15NTD/ENT2 cells in the presence of various concentrations of compound 3c (0, 0.01, 0.1, 1 and 10 µM) (B,E) 1/V versus 1/[S] plots of each curve in (A) and (D), respectively (C,F) The plot of slopes of each line in (B) and (E), respectively, versus the concentration of compound 3c. Data are presented as mean ± SE of three experiments.
# [2] = target: T2, ENT1 (Homo sapiens, UniProt Q99808); experiment: [3H]uridine uptake in PK15NTD/ENT1 cells; details: [3H]uridine 1 μM, 1 min, PK15NTD/ENT1 cells; read-out: IC50 against ENT1
# T2 construct: expressed in transfected cells
# T2 sequence (Q99808 1-456): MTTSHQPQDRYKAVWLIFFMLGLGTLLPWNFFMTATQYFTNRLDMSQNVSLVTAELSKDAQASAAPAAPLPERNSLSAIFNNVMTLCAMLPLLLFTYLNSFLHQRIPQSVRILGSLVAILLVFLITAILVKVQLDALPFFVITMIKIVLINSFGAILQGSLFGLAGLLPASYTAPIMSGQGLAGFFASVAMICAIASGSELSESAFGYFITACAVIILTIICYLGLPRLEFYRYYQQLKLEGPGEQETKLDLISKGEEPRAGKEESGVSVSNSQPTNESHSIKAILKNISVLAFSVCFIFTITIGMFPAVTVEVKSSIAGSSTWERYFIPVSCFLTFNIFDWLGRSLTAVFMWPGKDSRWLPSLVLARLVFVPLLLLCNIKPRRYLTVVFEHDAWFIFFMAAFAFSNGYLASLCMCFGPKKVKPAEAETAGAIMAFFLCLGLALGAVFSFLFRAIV
# Description: as §1, §2, §3
# [3] = target: T2, ENT1; experiment: Wash-out reversibility of [3H]uridine uptake inhibition in PK15NTD/ENT1 cells; details: 50 µM, incubation 1–60 min, washed five times
# Description: To determine whether the inhibitory effects of compound 3c were reversible or irreversible, PK15NTD/ENT1 and PK15NTD/ENT2 cells were incubated with 50 µM of compound 3c for different time periods (1–60 min). The cells were then washed five times with buffer. After wash-out for every single time [^3H]uridine uptake was measured. […] The longer the incubation time with compound 3c, the more difficult it was to wash-out the inhibitory effects of compound 3c.
# FIGURE 6 Reversibility of the inhibitory effects of compound 3c on ENT1 and ENT2 (A) PK15NTD/ENT1 and (B) PK15NTD/ENT2 cells were incubated with 50 μM of compound 3c or a vehicle (0.5% DMSO, as a control) for different time (0–60 min) The cells were then washed five times. After wash-out for every single time [^3H]uridine uptake (1 μM, 2 μCi/ml) was measured. Data are presented as mean ± SE of three experiments. ^* p < 0.05 compared with the fifth wash.
smiles,measurement,setting,value
Cc1cccc(Nc2nc(N)nc(CN3CCN(c4ccc(F)cc4)CC3)n2)c1 [Compound 3c],apparent Vmax of ENT2,[1]; 0.01 µM compound 3c,1775 ± 76.83 pmol/mg protein/min
same,apparent Vmax of ENT2,[1]; 0.1 µM compound 3c,1295 ± 78.09 pmol/mg protein/min
same,apparent Vmax of ENT2,[1]; 1 µM compound 3c,918.6 ± 47.48 pmol/mg protein/min
same,apparent Vmax of ENT2,[1]; 10 µM compound 3c,534.6 ± 28.21 pmol/mg protein/min
same,mode of inhibition of ENT2-mediated uridine transport,"[1]; decreased Vmax, apparent Km unchanged",non-competitive inhibitor
same,Ki,[1]; x-intercept of slopes versus concentration plot,0.54 µM
same,IC50,[2],2.38 µM
same,reversibility of inhibitory effect on ENT1 by washing,[3],only partially reversed by washing
